This is an account of results in patent US7282608B2, “Inhibitors of histone deacetylase” (Methylgene, Inc., priority 2002, dated 2007).

In assay [1] the test system is HCT116 human colorectal carcinoma cells. Kind of assay: Antineoplastic effects on human tumor xenografts in vivo. The settings on record: HCT116 xenograft, daily injection i.v., s.c. or i.p., starting dose 10 mg/kg. Further details: species or system CD1 nude mice. Here is the method:
Eight to ten week old female CD1 nude mice (Taconic Labs, Great Barrington, N.Y.) were injected subcutaneously in the flank area with 2×10^6 preconditioned HCT116 human colorectal carcinoma cells. Preconditioning of these cells was done by a minimum of three consecutive tumor transplantations in the same strain of nude mice. Subsequently, tumor fragments of approximately 30 mgs were excised and implanted subcutaneously in mice, in the left flank area, under Forene anesthesia (Abbott Labs, Geneva, Switzerland). When the tumors reached a mean volume of 100 mm^3, the mice were treated intravenously, subcutaneously, or intraperitoneally by daily injection, with a solution of the histone deacetylase inhibitor in an appropriate vehicle, such as PBS, DMSO/water, or Tween 80/water, at a starting dose of 10 mg/kg. The optimal dose of the HDAC inhibitor was established by dose response experiments according to standard protocols. Tumor volume was calculated every second day post infusion according to standard methods (e.g., Meyer et al., Int. J. Cancer 43: 851–856 (1989)).
In general terms: A xenograft is tissue or cells of one species grown in another, often human tumour cells in immunodeficient mice.

Assay [2] has as its system acetylated histone H-4 in T24 human bladder cancer cells. Kind of assay: Histone H4 acetylation in whole cells by immunoblots. The settings on record: 16 h, immunoblot densitometry, read-out: H4 Ac (T24) EC50. It is filed as cell-based. Here is the method:
T24 human bladder cancer cells growing in culture were incubated with HDAC inhibitors for 16 h. Histones were extracted from the cells after the culture period as described by M. Yoshida et al. (J. Biol. Chem. 265(28): 17174–17179 (1990)). […] of total histone protein was loaded onto SDS/PAGE and transferred to nitrocellulose membranes. Membranes were probed with polyclonal antibodies specific for acetylated histone H-4 (Upstate Biotech Inc.), followed by horse radish peroxidase conjugated secondary antibodies (Sigma). Enhanced Chemiluminescence (ECL) (Amersham) detection was performed using Kodak films (Eastman Kodak). Acetylated H-4 signal was quantified by densitometry. Representative data are presented in the fifth column of Table 7–10. Data are presented as the concentration effective for […] the acetylated H-4 signal by 50% (EC50).
On the technique in general: In western blotting, separated proteins are transferred to a membrane and probed.

In assay [3] the target is T1, cloned recombinant human HDAC-1 (Homo sapiens, UniProt Q13547).
T1 construct: made in house; host or cells: Baculovirus insect cell expression system
T1 sequence (Q13547 whole entry): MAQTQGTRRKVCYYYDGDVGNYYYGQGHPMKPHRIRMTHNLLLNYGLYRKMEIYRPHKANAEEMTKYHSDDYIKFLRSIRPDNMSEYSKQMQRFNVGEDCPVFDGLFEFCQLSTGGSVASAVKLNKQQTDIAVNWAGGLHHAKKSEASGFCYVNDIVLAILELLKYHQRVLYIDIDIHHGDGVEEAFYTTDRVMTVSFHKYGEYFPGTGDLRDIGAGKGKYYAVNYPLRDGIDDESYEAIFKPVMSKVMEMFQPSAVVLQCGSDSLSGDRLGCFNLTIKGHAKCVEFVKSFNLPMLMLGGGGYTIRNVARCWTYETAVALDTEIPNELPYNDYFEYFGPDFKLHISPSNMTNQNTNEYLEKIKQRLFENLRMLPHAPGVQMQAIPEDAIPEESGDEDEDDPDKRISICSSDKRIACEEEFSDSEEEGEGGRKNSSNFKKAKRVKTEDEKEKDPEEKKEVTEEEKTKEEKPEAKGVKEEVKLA
Kind of assay: Human HDAC-1 Assay 1: [3H]-acetylated histone deacetylase assay. Type of assay: biochemical. The settings on record: Assay 1, unbracketed data; [3H]-acetylated histone substrate, 10 min at 37° C. On the procedure: HDAC inhibitors were screened against a cloned recombinant human HDAC-1 enzyme expressed and purified from a Baculovirus insect cell expression system. For deacetylase assays, 20,000 cpm of the [^3H]-metabolically labeled acetylated histone substrate (M. Yoshida et al., J. Biol. Chem. 265(28): 17174–17179 (1990)) was incubated with 30 μg of the cloned recombinant hHDAC-1 for 10 minutes at 37° C. The reaction was stopped by adding acetic acid (0.04 M, final concentration) and HCl (250 mM, final concentration). […] For inhibition studies, the enzyme was preincubated with compounds at 4° C. for 30 minutes prior to initiation of the enzymatic assay. IC50 values for HDAC enzyme inhibitors were determined by performing dose response curves with individual compounds and determining the concentration of inhibitor producing fifty percent of the maximal inhibition. IC50 values for representative compounds assayed using this procedure are presented in the third column of Tables 7–10 (excepting bracketed data).

A further assay has as its system HCT116 cells. The assay can be described thus: MTT assay. The conditions noted are these: Homo sapiens, HCT-116, 72 hours. Type of assay: cell-based. On the procedure: HCT116 cells (2000/well) were plated into 96-well tissue culture plates one day before compound treatment. Compounds at various concentrations were added to the cells. The cells were incubated for 72 hours at 37° C. in 5% CO2 incubator. MTT (3-[4,5-dimethylthiazol-2-yl]-2,5 diphenyl tetrazolium bromide, Sigma) was added at a final concentration of 0.5 mg/ml and incubated with the cells for 4 hours before one volume of solubilization buffer (50% N,N-dimethylformamide, 20% SDS, pH 4.7) was added onto the cultured cells. After overnight incubation, solubilized dye was quantified by colorimetric reading at […] using a reference at […] using an MR700 plate reader (Dynatech Laboratories Inc.). OD values were converted to cell numbers according to a standard growth curve of the relevant cell line. The concentration which reduces cell numbers to 50% of that of solvent treated cells is determined as MTT IC50. IC50 values for representative compounds are presented in the fourth column of Tables 7–10.
(In general: Tetrazolium assays rely on reduction of a dye to a coloured formazan, in cell work by metabolically active cells.)

Broadly, the EC50 is the concentration at which the effect is half-maximal. By IC50 is commonly meant the concentration needed to halve the response being measured. For `Nc1ccccc1NC(=O)c1ccc(/C=C/CNc2nccc(-c3cccnc3)n2)cc1` [XVj, N-(2-Amino-phenyl)-4-[3-(4-pyridin-3-yl-pyrimidin-2-ylamino)-propenyl]-benzamide], in assay [1], the “reduction in tumor weight and volume relative to vehicle controls” value was “significant reduction in tumor weight and volume”. For the same compound, in assay [2], the EC50 is < 1000 nM. For the same compound, the concentration for half-maximal inhibition (IC50) in assay [3] was found to be 2000 nM; with HCT116 cells, 200 nM.
